Results taken from patent publication US11999727B2 (Tango Therapeutics, Inc., priority 2020, dated 2024).

Assays:
[1] = system: HAP1 MTAP-deleted cell line; assay: Viability assay, MTAP-deleted cell line; format: cell-based; conditions: Homo sapiens, HAP1, viability assay, HAP1 MTAP-deleted; read-out: HAP1 MTAP deleted viability
Description: Table 1 additionally indicates IC50 values in a viability assay for the MTAP-deleted cell line (column 10), indicating the effect of treatment with compound on cell survival.

[2] = system: HAP1 MTAP-intact cell line; assay: SDMA in-cell western assay, HAP1 MTAP-intact; format: cell-based; conditions: Homo sapiens, HAP1, SDMA in-cell western, HAP1 MTAP-intact; read-out: MTAP HAP1 intact IC50
Summary of the method: (§1)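 MTAP-null vs endogenous-MTAP HAP1 isogenic cells; in-cell western SDMA readout; IC50 per line.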

PRMT5 [3] = target: T1, PRMT5 (Homo sapiens, UniProt O14744); assay: PRMT5 biochemical IC50 assay with MTA as cofactor; conditions: PRMT5, MTA as cofactor; read-out: MTA IC50
T1 construct: purchased Viva (custom protein)
T1 sequence (O14744 whole entry): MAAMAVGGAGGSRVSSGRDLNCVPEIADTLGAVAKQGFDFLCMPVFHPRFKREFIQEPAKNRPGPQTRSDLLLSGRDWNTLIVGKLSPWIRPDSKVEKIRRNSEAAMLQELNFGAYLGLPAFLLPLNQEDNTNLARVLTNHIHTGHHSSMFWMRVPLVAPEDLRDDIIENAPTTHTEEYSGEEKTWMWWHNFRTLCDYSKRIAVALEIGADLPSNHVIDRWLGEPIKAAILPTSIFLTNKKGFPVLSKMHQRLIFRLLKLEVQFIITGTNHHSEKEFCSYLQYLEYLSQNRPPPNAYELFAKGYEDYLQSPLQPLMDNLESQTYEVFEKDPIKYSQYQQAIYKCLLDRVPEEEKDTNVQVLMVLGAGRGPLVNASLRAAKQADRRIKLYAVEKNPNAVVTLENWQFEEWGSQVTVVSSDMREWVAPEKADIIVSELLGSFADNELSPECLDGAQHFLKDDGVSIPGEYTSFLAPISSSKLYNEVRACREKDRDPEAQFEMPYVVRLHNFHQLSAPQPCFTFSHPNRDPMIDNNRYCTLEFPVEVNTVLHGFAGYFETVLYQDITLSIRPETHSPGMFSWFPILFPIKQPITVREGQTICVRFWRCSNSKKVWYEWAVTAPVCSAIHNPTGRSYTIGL
T1 sequence (Q9BQA1 whole entry partner): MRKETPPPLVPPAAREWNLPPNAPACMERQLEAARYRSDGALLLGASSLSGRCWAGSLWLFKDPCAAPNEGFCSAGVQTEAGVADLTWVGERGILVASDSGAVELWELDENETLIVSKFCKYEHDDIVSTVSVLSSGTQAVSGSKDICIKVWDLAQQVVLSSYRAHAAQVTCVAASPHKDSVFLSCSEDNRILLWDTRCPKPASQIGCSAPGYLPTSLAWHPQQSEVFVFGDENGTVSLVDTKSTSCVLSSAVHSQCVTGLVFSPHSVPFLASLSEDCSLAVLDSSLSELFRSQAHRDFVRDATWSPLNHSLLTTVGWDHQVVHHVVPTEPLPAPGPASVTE

[4] = system: HAP1 MTAP-deleted cell line; assay: SDMA in-cell western assay, HAP1 MTAP-deleted; format: cell-based; conditions: for IC50: Homo sapiens, HAP1, SDMA in-cell western, HAP1 MTAP-deleted, read-out: HAP1 MTAP deleted IC50; for MTAP intact/deleted ratio: IC50 ratio HAP1 MTAP-intact / HAP1 MTAP-deleted, SDMA in-cell western
Summary of the method: as §1

PRMT5 [5] = target: T1, PRMT5; assay: PRMT5 biochemical IC50 assay with SAM as cofactor; conditions: PRMT5, SAM as cofactor; read-out: SAM IC50
PRMT5 [6] = target: T1, PRMT5; assay: PRMT5 biochemical IC50 assay with no cofactor; conditions: PRMT5, no cofactor; read-out: No Cofactor/rel IC50
Description: Table 1 indicates IC50 values (μM) against PRMT5 for exemplary compounds in the presence of SAM as cofactor, with no cofactor, and with MTA as cofactor, respectively (columns 4-6). […] Ki values can be calculated from the IC50 values as described in the Examples section. As detailed in the Examples section, for the assay performed in the presence of SAM, IC50=Ki×1.5 (Ki=IC50/1.5).

| SMILES | IC50 [1] [nM] | IC50 [2] [nM] | IC50 (PRMT5 [3]) [nM] | IC50 [4] [nM] | MTAP intact/deleted ratio [4] | IC50 (PRMT5 [5]) [nM] | IC50 (PRMT5 [6]) [nM] |
| --- | --- | --- | --- | --- | --- | --- | --- |
| C[C@@H]1CC[C@@H](c2ccc3[nH]ncc3n2)N(C(=O)C(=O)Nc2cncc(C(N)=O)c2)C1 (single isomer, unassigned) [Compound 787] | > 10000 | > 1000 | > 500 | > 1000 | C (an IC50 ratio of less than 3 fold) | > 500 | > 500 |
| Cc1cc(NC(=O)C(=O)N2C[C@H](C)CC[C@H]2c2ccc3[nH]ncc3n2)cnc1N (single isomer, unassigned) [Compound 788] | < 1000 | 100 to 1000 | < 50 | < 100 | A (an IC50 ratio greater than or equal to 10 fold) | 50 to 500 | < 50 |
| Cc1cc(NC(=O)C(=O)N2C[C@@H](C)CC[C@@H]2c2ccn(-c3cc[nH]n3)n2)cnc1N (single isomer, unassigned) [Compound 789] | > 10000 | > 1000 | > 500 | > 1000 | B (an IC50 ratio greater than or equal to 3 fold but lower than 10 fold) | > 500 | > 500 |
| Cc1cc(NC(=O)C(=O)N2C[C@@H](C)CC[C@@H]2c2cccc3[nH]ncc23)cnc1N (single isomer, unassigned) [Compound 790] | > 10000 | > 1000 | > 500 | 100 to 1000 | A (an IC50 ratio greater than or equal to 10 fold) | > 500 | > 500 |
| C[C@@H]1CC[C@@H](c2ccc(C(N)=O)s2)N(C(=O)C(=O)Nc2cncc(C(N)=O)c2)C1 (single isomer, unassigned) [Compound 792] | 1000 to 10000 | > 1000 | < 50 | < 100 | A (an IC50 ratio greater than or equal to 10 fold) | 50 to 500 | < 50 |
| COc1ncc(NC(=O)C(=O)N2C[C@H](C)CC[C@H]2c2ccc3[nH]cnc3c2)cc1C(N)=O (single isomer, unassigned) [Compound 794] | < 1000 | > 1000 | < 50 | < 100 | A (an IC50 ratio greater than or equal to 10 fold) | 50 to 500 | < 50 |
| C[C@@]1(F)CC[C@H](c2ccccc2)N(C(=O)C(=O)Nc2cncc(C(N)=O)c2)C1 (single isomer, unassigned) [Compound 795, 5-(2-(5-fluoro-5-methyl-2-phenylpiperidin-1-yl)-2-oxoacetamido)nicotinamide] | 1000 to 10000 | > 1000 | < 50 | < 100 | A (an IC50 ratio greater than or equal to 10 fold) | 50 to 500 | 50 to 500 |
| C[C@H]1CC[C@H](c2ccc(C(N)=O)s2)N(C(=O)C(=O)Nc2cncc(C(N)=O)c2)C1 (single isomer, unassigned) [Compound 796] | > 10000 | > 1000 | > 500 | > 1000 | C (an IC50 ratio of less than 3 fold) | > 500 | > 500 |
| COc1ncc(NC(=O)C(=O)N2C[C@@H](C)CC[C@@H]2c2ccc3sc(C)nc3c2)cc1C(N)=O (single isomer, unassigned) [Compound 797] | < 1000 | > 1000 | < 50 | < 100 | A (an IC50 ratio greater than or equal to 10 fold) | 50 to 500 | < 50 |
| C[C@]1(F)CC[C@@H](c2ccccc2)N(C(=O)C(=O)Nc2cncc(C(N)=O)c2)C1 (single isomer, unassigned) [Compound 798, 5-(2-(5-fluoro-5-methyl-2-phenylpiperidin-1-yl)-2-oxoacetamido)nicotinamide] | > 10000 | > 1000 | > 500 | > 1000 | C (an IC50 ratio of less than 3 fold) | > 500 | > 500 |
| COc1ncc(NC(=O)C(=O)N2C[C@H](C)CC[C@H]2c2ccc(-c3nccs3)cc2)cc1C(N)=O (single isomer, unassigned) [Compound 799] | > 10000 | > 1000 | > 500 | > 1000 | C (an IC50 ratio of less than 3 fold) | > 500 | > 500 |
| CCc1cc(NC(=O)C(=O)N2C[C@@H](C)CC[C@@H]2c2ccc3sc(C)nc3c2)cnc1N (single isomer, unassigned) [Compound 800] | < 1000 | 100 to 1000 | < 50 | < 100 | A (an IC50 ratio greater than or equal to 10 fold) | 50 to 500 | < 50 |
| CCc1cc(NC(=O)C(=O)N2C[C@H](C)CC[C@H]2c2ccc3sc(C)nc3c2)cnc1N (single isomer, unassigned) [Compound 801] | > 10000 | > 1000 | > 500 | > 1000 | B (an IC50 ratio greater than or equal to 3 fold but lower than 10 fold) | > 500 | > 500 |
| Cc1cc(NC(=O)C(=O)N2C[C@H](C)CC[C@H]2c2ccc(CO)cc2)cnc1N (single isomer, unassigned) [Compound 802] | > 10000 | > 1000 | > 500 | > 1000 | B (an IC50 ratio greater than or equal to 3 fold but lower than 10 fold) | > 500 | > 500 |
| C[C@@H]1CC[C@@H](c2ccc3[nH]c(=O)ccc3c2)N(C(=O)C(=O)Nc2cncc(C(N)=O)c2)C1 (single isomer, unassigned) [Compound 804] | > 10000 | > 1000 | > 500 | > 1000 | C (an IC50 ratio of less than 3 fold) | > 500 | > 500 |
| COc1ncc(NC(=O)C(=O)N2C[C@@H](C)CC[C@@H]2c2ccc3[nH]cnc3c2)cc1C(N)=O (single isomer, unassigned) [Compound 805] | > 10000 | > 1000 | > 500 | 100 to 1000 | A (an IC50 ratio greater than or equal to 10 fold) | > 500 | > 500 |
| Cc1cc(NC(=O)C(=O)N2C[C@@H](C)CC[C@@H]2c2ccc(CO)cc2)cnc1N (single isomer, unassigned) [Compound 806] | < 1000 | 100 to 1000 | < 50 | < 100 | A (an IC50 ratio greater than or equal to 10 fold) | 50 to 500 | < 50 |
| COc1ncc(NC(=O)C(=O)N2C[C@@H](C)CC[C@@H]2c2ccc3[nH]c(=O)ccc3c2)cc1C(N)=O (single isomer, unassigned) [Compound 807] | < 1000 | 100 to 1000 | < 50 | < 100 | A (an IC50 ratio greater than or equal to 10 fold) | 50 to 500 | < 50 |
| C[C@H]1CC[C@H](c2ccc3[nH]c(=O)ccc3c2)N(C(=O)C(=O)Nc2cncc(C(N)=O)c2)C1 (single isomer, unassigned) [Compound 809] | 1000 to 10000 | > 1000 | < 50 | 100 to 1000 | A (an IC50 ratio greater than or equal to 10 fold) | 50 to 500 | < 50 |
| COc1ncc(NC(=O)C(=O)N2C[C@H](C)CC[C@H]2c2ccc3[nH]c(=O)ccc3c2)cc1C(N)=O (single isomer, unassigned) [Compound 810] | > 10000 | > 1000 | > 500 | > 1000 | B (an IC50 ratio greater than or equal to 3 fold but lower than 10 fold) | > 500 | > 500 |
| COc1ncc(NC(=O)C(=O)N2C[C@@H](C)CC[C@@H]2c2ccc(-c3nccs3)cc2)cc1C(N)=O (single isomer, unassigned) [Compound 811] | 1000 to 10000 | > 1000 | < 50 | 100 to 1000 | A (an IC50 ratio greater than or equal to 10 fold) | 50 to 500 | 50 to 500 |
| CCc1cc(NC(=O)C(=O)N2C[C@H](C)CC[C@H]2c2ccc(-c3nccs3)cc2)cnc1N (single isomer, unassigned) [Compound 813] | < 1000 | > 1000 | < 50 | 100 to 1000 | A (an IC50 ratio greater than or equal to 10 fold) | 50 to 500 | 50 to 500 |
